Activity calls are given as the source filed them. The rule behind the calls is not given here.
Key:
Type in all cases: functional, cell-based
PC-3 [1] = assay: Antimigratory activity against human PC3 cells assessed as inhibition of cell migration after 24 hrs by wound healing assay; conditions: PC-3, 24 h
PC-3 [2] = assay: Antiinvasive activity against human PC3 cells assessed as inhibition of cells invaded across basement membrane extract at 50 uM by calcein-acetomethylester fluorescence analysis
PC-3 [3] = assay: Antimigratory activity against human PC3 cells assessed as migrated cells measured under microscope at 37 uM after 24 hrs by wound healing assay relative to control

SMILES	IC50 (PC-3 [1]; read-out: IC50) [µM]	IC50 (PC-3 [1]; read-out: pIC50 (converted)) [µM]	Activity (PC-3 [2])	Activity (PC-3 [3])
CC(=O)O[C@]1(C)CC[C@H](C(C)C)[C@@H]2[C@H]1[C@H]1C[C@]3(C)CCC[C@@](C)(O3)[C@@H]2O1	52	52	–	–
C=C1CC[C@H](C(C)C)[C@@H]2[C@H]1[C@H]1CC(=C)[C@@H](OC(=O)NCCCCCCCC)CC[C@@](C)(O)[C@@H]2O1	122	122	–	–
C=C1CC[C@H](C(C)C)[C@@H]2[C@H]1[C@H]1CC(=C)[C@@H](OC(=O)NCCCCl)CC[C@@](C)(O)[C@@H]2O1	67	67	–	–
C=C1CC[C@H](C(C)C)[C@@H]2[C@H]1[C@H]1C[C@](C)(O)[C@@H](OC)CCC(C)(O)[C@@H]2O1 (single isomer, unassigned) [SCLEROPHYTIN F METHYL ETHER]	59	59	–	–
C=C1CC[C@H](C(C)C)[C@@H]2[C@H]1[C@H]1C/C(C)=C\CC[C@@](C)(O)[C@@H]2O1 [6Z-CLADIELLIN]	84	84	–	–
C=C1CC[C@H](C(C)C)[C@@H]2[C@H]1[C@@H]1CC(=C)[C@@H](O)CC[C@](C)(O)[C@H]2O1 [CLADIELLISIN]	88	88	Active	–
CC(=O)O[C@]1(C)CC[C@H](C(C)C)[C@@H]2[C@H]1[C@H]1C[C@](C)(O)[C@@H](O)CC[C@@](C)(OC(C)=O)[C@@H]2O1 [KLYSIMPLEXIN G]	16	16	–	–
C=C1C[C@H]2O[C@H]([C@@H]3[C@@H](C(C)C)[C@H](O)C[C@@](C)(OC(=O)CCC)[C@@H]32)[C@](C)(OC(C)=O)CC[C@@H]1O [PACHYCLADIN B]	88	88	–	–
C=C1CC[C@H](C(C)C)[C@@H]2[C@H]1[C@H]1CC(=C)[C@]3(O)CC[C@@](C)(O3)[C@@H]2O1 [PACHYCLADIN D]	75	75	–	–
C=C1CC[C@H](C(C)C)[C@@H]2[C@H]1[C@H]1C[C@](C)(O)[C@@H](OCC)CC[C@@](C)(O)[C@@H]2O1 [PATAGONICOL]	76	76	–	–
C=C1CC[C@H](C(C)C)[C@@H]2[C@H]1[C@H]1C[C@](C)(O)[C@@H](O)CC[C@@](C)(O)[C@@H]2O1 [SCLEROPHYTIN A]	84	84	–	–

Continued by falling IC50 (PC-3 [1]; read-out: IC50), values first:

IC50 (PC-3 [1]; read-out: IC50) [µM]	IC50 (PC-3 [1]; read-out: pIC50 (converted)) [µM]	SMILES	Activity (PC-3 [2])	Activity (PC-3 [3])
160	160	C=C1C[C@H]2O[C@H]([C@H]3[C@@H]2[C@]2(CC[C@@H]3C(C)C)CO2)[C@](C)(O)CC[C@@H]1O (relative stereo)	Active	–
160	159	C=C1CC[C@H](C(C)C)[C@@H]2[C@H]1[C@H]1C[C@](C)(O)[C@@H](O)CC[C@@](C)(OC(C)=O)[C@@H]2O1 [SCLEROPHYTIN B]	–	–
125	125	C=C1C[C@H]2O[C@H]([C@@H]3[C@@H](C(C)C)[C@H](O)C[C@@](C)(OC(C)=O)[C@@H]32)[C@](C)(OC(C)=O)CC[C@@H]1O [KLYSIMPLEXIN E]	–	–
97	97	C=CCNC(=O)N(CC=C)C(=O)N(CC=C)C(=O)O[C@H]1CC[C@@](C)(O)[C@@H]2O[C@H](CC1=C)[C@H]1C(=C)CC[C@H](C(C)C)[C@H]12	–	–
90	90	C=C1C[C@H]2O[C@H]([C@H]3[C@@H]2[C@]2(CC[C@@H]3C(C)C)CO2)[C@](C)(O)CC[C@@H]1OC(=O)NCCCC (relative stereo)	–	–
70	70	C=C1C[C@H]2O[C@H]([C@H]3[C@@H]2[C@]2(CC[C@@H]3C(C)C)CO2)[C@](C)(O)CC[C@@H]1OC(=O)N(Cc1ccccc1)C(=O)NCc1ccccc1	–	–
64	64	C=C1C[C@H]2O[C@H]([C@H]3[C@@H]2[C@](C)(OC(C)=O)CC[C@@H]3C(C)C)[C@@]2(C)CC[C@]1(O)O2 [PACHYCLADIN E]	–	–
57	57	C=C1CC[C@H](C(C)C)[C@@H]2[C@H]1[C@H]1CC(=C)[C@@H](OC(=O)Nc3ccccc3)CC[C@@](C)(O)[C@@H]2O1	–	–
56	56	C=C1CC[C@H](C(C)C)[C@@H]2[C@H]1[C@H]1CC(=C)[C@@H](OC(C)=O)CC[C@@](C)(O)[C@@H]2O1 [PACHYCLADIN C]	–	–
44	44	C=C1CC[C@H](C(C)C)[C@@H]2[C@H]1[C@H]1CC(=C)[C@@H](O)CC[C@@](C)(OC(C)=O)[C@@H]2O1	–	–
43	43	C=C1CC[C@H](C(C)C)[C@@H]2[C@H]1[C@H]1CC(=C)[C@@H](OC(=O)NCCCCC)CC[C@@](C)(O)[C@@H]2O1	–	–
37	37	C=C1CC[C@H](C(C)C)[C@@H]2[C@H]1[C@H]1CC(=C)[C@@H](OC(=O)NCCCC)CC[C@@](C)(O)[C@@H]2O1	Active	Active
36	36	C=C1CC[C@H](C(C)C)[C@@H]2[C@H]1[C@H]1CC(=C)[C@@H](OC(C)=O)CC[C@@](C)(OC(C)=O)[C@@H]2O1	–	–
30	30	C=C1CC[C@H](C(C)C)[C@@H]2[C@H]1[C@H]1CC(=C)[C@@H](OC(=O)N(Cc3ccccc3)C(=O)NCc3ccccc3)CC[C@@](C)(O)[C@@H]2O1	Active	–
5	5	CCCC(=O)O[C@]1(C)CC[C@H](C(C)C)[C@@H]2[C@H]1[C@H]1C[C@](C)(O)[C@@H](O)CC[C@@](C)(OC(C)=O)[C@@H]2O1 [PACHYCLADIN A]	–	–
